From publication PMC11811690 (Angewandte Chemie (International Ed. in English), 2024) come the findings set out here.

In the test the test system is Rif-resistant Mtb isolate (clinical isolate, rpoB mutant S531L). The class given is cell-based, Mycobacterium tuberculosis.
Regarding `CC[C@H]1/C=C(\C)[C@@H](O)C/C=C/C=C(\CN(C)Cc2nnc(-c3ccccc3)o2)C(=O)O[C@H]([C@@H](C)O)C/C=C(C)/C=C(\C)[C@@H]1O[C@@H]1OC(C)(C)[C@@H](OC(=O)C(C)C)[C@H](O)[C@@H]1O` [compound 7], the “MIC Rif-resistant Mtb isolate, turbidity read-out” value (“MIC Rif-resistant Mtb isolate” below) lay in the range of 8 to 16 µg/mL. The figure for `CC[C@H]1/C=C(\C)[C@@H](O)C/C=C/C=C(\CNc2nc3ccccc3s2)C(=O)O[C@H]([C@@H](C)O)C/C=C(C)/C=C(\C)[C@@H]1O[C@@H]1OC(C)(C)[C@@H](OC(=O)C(C)C)[C@H](O)[C@@H]1O` [compound 9] is 8 to 16 µg/mL. As for `CC[C@H]1/C=C(\C)[C@@H](O)C/C=C/C=C(\CNc2nc(COc3ccccc3)cs2)C(=O)O[C@H]([C@@H](C)O)C/C=C(C)/C=C(\C)[C@@H]1O[C@@H]1OC(C)(C)[C@@H](OC(=O)C(C)C)[C@H](O)[C@@H]1O` [compound 10], the “MIC Rif-resistant Mtb isolate” value is 8 to 16 µg/mL. For `CC[C@H]1/C=C(\C)[C@@H](O)C/C=C/C=C(\CNc2nc(-c3ccccc3)cs2)C(=O)O[C@H]([C@@H](C)O)C/C=C(C)/C=C(\C)[C@@H]1O[C@@H]1OC(C)(C)[C@@H](OC(=O)C(C)C)[C@H](O)[C@@H]1O` [compound 13], the “MIC Rif-resistant Mtb isolate” value is 8 to 16 µg/mL.

As to `CC[C@H]1/C=C(\C)[C@@H](O)C/C=C/C=C(\CNCc2nnc(-c3ccccc3)o2)C(=O)O[C@H]([C@@H](C)O)C/C=C(C)/C=C(\C)[C@@H]1O[C@@H]1OC(C)(C)[C@@H](OC(=O)C(C)C)[C@H](O)[C@@H]1O` [compound 16], the “MIC Rif-resistant Mtb isolate” value fell in the range of 4 to 8 µg/mL. Consider `CC[C@H]1/C=C(\C)[C@@H](O)C/C=C/C=C(\CNCc2nnc(-c3ccc(OC)c(OC)c3Cl)o2)C(=O)O[C@H]([C@@H](C)O)C/C=C(C)/C=C(\C)[C@@H]1O[C@@H]1OC(C)(C)[C@@H](OC(=O)C(C)C)[C@H](O)[C@@H]1O` [compound 18], for which the “MIC Rif-resistant Mtb isolate” value lay in the range of 4 to 8 µg/mL. To `CC[C@H]1/C=C(\C)[C@@H](O)C/C=C/C=C(\CNCc2nnc(-c3ccc(C(F)(F)F)cc3)o2)C(=O)O[C@H]([C@@H](C)O)C/C=C(C)/C=C(\C)[C@@H]1O[C@@H]1OC(C)(C)[C@@H](OC(=O)C(C)C)[C@H](O)[C@@H]1O` [compound 23] belongs 4-8; to `CC[C@H]1/C=C(\C)[C@@H](O)C/C=C/C=C(\CNc2ccc(C#N)cc2)C(=O)O[C@H]([C@@H](C)O)C/C=C(C)/C=C(\C)[C@@H]1O[C@@H]1OC(C)(C)[C@@H](OC(=O)C(C)C)[C@H](O)[C@@H]1O` [compound 24], 16-32; to `CC[C@H]1/C=C(\C)[C@@H](O)C/C=C/C=C(\CNc2ccc(C#N)cn2)C(=O)O[C@H]([C@@H](C)O)C/C=C(C)/C=C(\C)[C@@H]1O[C@@H]1OC(C)(C)[C@@H](OC(=O)C(C)C)[C@H](O)[C@@H]1O` [compound 25], 16-32.
